Broadly, the EC50 is the midpoint of the concentration-response curve. The AC50 is the midpoint of the concentration-response curve, whichever way the signal moves. In general, IC50 refers to the point on the concentration scale where inhibition reaches its midpoint. By CC50 is commonly meant the concentration giving 50% cytotoxicity. For orientation: Ki means the equilibrium dissociation constant of an inhibitor or competing ligand from its target. The term IC90 denotes the point of the concentration-response curve where the effect stands at 90%.

Experimental findings from ChEMBL document CHEMBL1201862, “PubChem BioAssay data set” (2004) are described below.

Test [1] is described as follows: NIH-3T3 fibroblast cytotoxicity, dose response, cytotoxicity control, cell-based, fluorescence, Alamar Blue, secondary assay (AID 2327).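 Note: NIH-3T3 mouse fibroblasts cultured with fluconazole at 8 µg/mL.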 The format is functional.
A further test has as its system INS1. As to the kind of experiment: beta cell apoptosis inhibitors, cytokine rescue, dose response, luminescence, retest (AID 449756).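 Note: cell death triggered by IL-1 beta plus TNF-alpha plus IFN-gamma mixture; protective hits raise ATP signal compared with cytokine alone wells.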 The format is functional, cell-based. The settings on record: Rattus norvegicus, INS1.
Test [2] in a line: control 3'UTR Renilla luciferase suppression, dose response, counter-screen for Shn3 inhibitor project, cell-based, Clone20-Shn3RL, cherry-picked (AID 624133). The test is classed as functional. In general terms: The purpose of a counterscreen is to sort out artefacts and off-target activity.
Test [3] has as its target T1, Serine/threonine-protein phosphatase (Candida dubliniensis (strain CD36 / CBS 7987 / NCPF 3949 / NRRLY-17841) (Yeast), UniProt B9W6M3).
T1 sequence (B9W6M3 whole entry): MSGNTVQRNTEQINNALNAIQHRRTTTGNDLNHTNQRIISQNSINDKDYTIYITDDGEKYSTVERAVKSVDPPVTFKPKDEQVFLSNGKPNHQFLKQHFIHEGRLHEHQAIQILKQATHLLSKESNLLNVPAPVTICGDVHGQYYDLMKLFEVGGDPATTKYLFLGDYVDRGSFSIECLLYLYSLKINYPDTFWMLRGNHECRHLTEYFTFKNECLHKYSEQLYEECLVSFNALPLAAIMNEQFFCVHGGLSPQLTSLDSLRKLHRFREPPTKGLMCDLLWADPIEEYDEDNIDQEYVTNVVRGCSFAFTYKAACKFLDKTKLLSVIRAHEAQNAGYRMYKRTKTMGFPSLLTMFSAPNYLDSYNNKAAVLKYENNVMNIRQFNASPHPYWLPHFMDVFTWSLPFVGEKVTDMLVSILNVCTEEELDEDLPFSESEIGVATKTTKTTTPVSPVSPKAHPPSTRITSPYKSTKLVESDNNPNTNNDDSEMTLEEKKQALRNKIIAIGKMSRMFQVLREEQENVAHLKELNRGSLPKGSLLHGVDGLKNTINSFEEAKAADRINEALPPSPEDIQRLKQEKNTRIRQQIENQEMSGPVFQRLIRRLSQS
As to the kind of experiment: calcineurin pathway inhibitors in yeast reporter, dose response, S. cerevisiae, CDRE-lacZ, luminescence, secondary (AID 2388).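 Note: yeast reporter cells carrying a calcineurin-responsive lacZ construct stimulated with calcium chloride; luminescent beta-galactosidase reporter signal in whole cells rather than isolated phosphatase activity; potency for inhibition where a drop in reporter signal means calcineurin blockade.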 The format is functional, cell-based.

A short description of test [4]: C. albicans growth with fluconazole, confirmation, fluorescence, retest (AID 2467). The format is functional, cell-based.
Test [5] in a line: cells. The test is classed as functional, cell-based. The conditions noted are these: HEK-CNG.
The nature of test [6]: cytotoxicity in HEK-293T cells, dose response, cytotoxicity control for TCR NF-kB inhibitor project, luminescence, T-cell screen hits (AID 489026).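 Note: cells exposed to compound about 14 hours before the viability readout.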 The format is functional, cell-based.
Test [7] concerns the target ATP-dependent molecular chaperone HSP82 (Candida albicans (strain WO-1) (Yeast), UniProt C4YTQ8). As to the kind of experiment: loss of DOC-induced GRE-beta-galactosidase reporter signal, dose response, Hsp90 inhibitor project, S. cerevisiae, luminescence (AID 2400).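 Note: beta-galactosidase luminescence from glucocorticoid response element reporter as proxy for Hsp90 function; inhibitor potency where signal loss means Hsp90 inhibition.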 The test is classed as functional, cell-based.
The nature of test [8]: HepG2 cell cytotoxicity, dose response, cytotoxicity control for Shn3 inhibitor project, CellTiter-Glo, cherry-picked (AID 624134). The test is classed as functional, cell-based. In general terms: In ATP-based viability assays light output follows the ATP content of the culture.
Test [9] deals with COUP transcription factor 2 (Homo sapiens, UniProt P24468). As to the kind of experiment: Luminescence-based cell-based high throughput dose response assay to identify inhibitors of COUP-TFII (NR2F2). The format is functional.
The nature of test [10]: Shn3 3'UTR reporter inhibitors, dose response, cell-based, Clone20 osteoblasts, firefly luciferase, cherry-picked (AID 624132).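 Note: firefly luciferase luminescence from reporter carrying the Shn3 3'UTR in osteoblasts.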 The format is functional.
The target in another test is Galanin receptor type 3 (Homo sapiens, UniProt O60755). As to the kind of experiment: Fluorescence-based cell-based primary high throughput dose response assay to identify antagonists of the Galanin Receptor 3 (GalR3). The test is classed as functional.
The nature of test [11]: P. falciparum Dd2 blood-stage growth inhibition, dose response, SYBR Green fluorescence, erythrocytes, dry powder, set 2 (AID 1159574). The test is classed as functional, cell-based.
In test [12] the test system is BJ. As to the kind of experiment: cells. The format is functional, cell-based. The conditions noted are these: Homo sapiens.
Test [13] deals with BJ. Description: cytotoxicity toward BJ-TERT-LT-ST fibroblasts, dose response, cell-based, RAS-independent, luminescence (AID 1935).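 Note: BJ fibroblasts immortalized with TERT plus LT and ST oncogenes.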 The test is classed as functional. The settings on record: Homo sapiens.
In test [14] the test system is BJ. As to the kind of experiment: cytotoxicity toward BJ-TERT fibroblasts, dose response, cell-based, RAS-independent, luminescence (AID 1933). The format is functional. The conditions noted are these: Homo sapiens.
Test [15] deals with RNA-editing ligase 1, mitochondrial (Trypanosoma brucei brucei, UniProt P86926). Description: TbREL1 ligase inhibitors, dose response, biochemical, fluorescence, Trypanosoma brucei (AID 1117295). The format is functional.
The nature of test [16]: cytotoxicity toward DRD oncogenic fibroblasts, dose response, cell-based, non-viral oncogenic, luminescence (AID 1934). The test is classed as functional. The conditions noted are these: Homo sapiens.
Test [17] can be described thus: cells.
Test [18] concerns the target NAD-dependent protein deacylase sirtuin-5, mitochondrial (Homo sapiens, UniProt Q9NXA8). As to the kind of experiment: SIRT5 deacylase inhibitors, dose response, biochemical, fluorescence imaging, cherry-pick, set 6 (AID 720597).
Test [19] concerns the target Glutathione-S-transferase (Schistosoma japonicum, UniProt Q26513). As to the kind of experiment: biotin-GST/anti-GST TR-FRET signal inhibitors, dose response, artefact control for Vif-APOBEC3G degradation inhibitor project, biochemical (AID 1117362). The format is functional. A general note: TR-FRET usually uses a lanthanide donor and a delayed reading to cut background.

Test [20] in a line: THP-1 cell cytotoxicity, dose response, cytotoxicity control for Vif-APOBEC3G degradation inhibitor project, THP-1 cells (AID 1117359). The settings on record: Human immunodeficiency virus 1, THP-1. The test is classed as functional.
Test [21] concerns the target Potassium channel subfamily K member 3 (Homo sapiens, UniProt O14649). Description: TASK1 (KCNK3) potassium channel inhibitors, SAR follow-up, CHO cells, FluxOR thallium flux (AID 652212). The format is functional.
Test [22] addresses Potassium channel subfamily K member 9 (Homo sapiens, UniProt Q9NPC2). Description: TASK3 (KCNK9) channel inhibitors, thallium flux, SAR follow-up, selectivity assay for TASK1 inhibitor project, cell-based, FluxOR thallium flux, concentration-response (AID 652211).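 Note: potency is for inhibitors of the channel.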 The format is functional.
For the next test, the target named is fMet-Leu-Phe receptor (Homo sapiens, UniProt P21462). Description: FPR ligands, dose response (AID 519). The test is classed as functional.
A short description of test [23]: HCT116 cell viability decrease, GSK3B pretreatment – CellTiter-Glo, IC50, dose response (AID 1117339). The format is functional. The settings on record: HCT-116.
Test [24] is described as follows: cytotoxicity toward Colo320 cells – cell-based, CellTiter-Glo luminescence, IC50, dose response (AID 1117334). The test is classed as functional. The conditions noted are these: COLO 320.
A short description of test [25]: cytotoxicity toward HCT116 cells – cell-based, CellTiter-Glo luminescence, IC50, dose response (AID 1117332). The format is functional. The settings on record: HCT-116.
The nature of test [26]: cytotoxicity toward HT-29 cells – cell-based, CellTiter-Glo luminescence, IC50, dose response (AID 1117330). The format is functional.
Test [27] is described as follows: SNU-C1 cell viability reduction, dose response, CellTiter-Glo luminescence (AID 1117323). The test is classed as functional, cell-based.
Test [28] is described as follows: RKO cell viability reduction, dose response, CellTiter-Glo luminescence (AID 1117322). The test is classed as functional.
Test [29] can be described thus: CellTiter-Glo luminescent dose response of DLD-1 viability loss (AID 1117352). The test is classed as functional.
Test [30] is described as follows: Concentration-dependent survival of SW480 colon cancer line, luminescence detection with CellTiter-Glo, half-maximal inhibitory concentration (AID 1117338). The format is functional.
Test [31] in a line: inhibitors of non-replicating M. tuberculosis, dose response, luciferase, dry powder (AID 651619). The format is functional. The settings on record: Mycobacterium tuberculosis.
Test [32] can be described thus: inhibitors of non-replicating M. tuberculosis, dose response, luciferase, dry powder (AID 651620). The conditions noted are these: Mycobacterium tuberculosis. The format is functional.
A short description of test [33]: cells. The conditions noted are these: HEK293.
Test [34] can be described thus: HepG2 cell cytotoxicity, dose response, cytotoxicity control, ATP luminescence, cherry-pick, set 6 (AID 1053125). The format is functional, cell-based.
The target of test [35] is C-C chemokine receptor type 6 (Homo sapiens, UniProt P51684). Description: SAR analysis of small molecule antagonists of the CXCR6 receptor using a CCR6 receptor luminescent beta-arrestin counterscreen. The format is functional.
The target of test [36] is C-X-C chemokine receptor type 4 (Homo sapiens, UniProt P61073). As to the kind of experiment: SAR analysis of small molecule antagonists of the CXCR6 receptor using a CXCR4 receptor luminescent beta-arrestin counterscreen. The test is classed as functional.
The nature of test [37]: HepG2 cell cytotoxicity, dose response, cytotoxicity control, ATP luminescence, dry powder, Set4 (AID 743143). The test is classed as functional, cell-based.
Test [38] in a line: A549 cell cytotoxicity, dose response, cytotoxicity control, CellTiter-Glo luminescence, dry powder, set 3 (AID 743146). The format is functional, cell-based.
Test [39] is described as follows: BHK-21 cell cytotoxicity, cytotoxicity control for flavivirus guanylyltransferase probe project, secondary screen (AID 624078). The test is classed as functional.

“And” between values parts separate entries of the source, which are not always exact repeats. Identical values can stand only once. The source made the active and inactive calls. A value given as a limit tells only on which side of the number the result lay.

C-X-C chemokine receptor type 4, sequence (P61073 whole entry): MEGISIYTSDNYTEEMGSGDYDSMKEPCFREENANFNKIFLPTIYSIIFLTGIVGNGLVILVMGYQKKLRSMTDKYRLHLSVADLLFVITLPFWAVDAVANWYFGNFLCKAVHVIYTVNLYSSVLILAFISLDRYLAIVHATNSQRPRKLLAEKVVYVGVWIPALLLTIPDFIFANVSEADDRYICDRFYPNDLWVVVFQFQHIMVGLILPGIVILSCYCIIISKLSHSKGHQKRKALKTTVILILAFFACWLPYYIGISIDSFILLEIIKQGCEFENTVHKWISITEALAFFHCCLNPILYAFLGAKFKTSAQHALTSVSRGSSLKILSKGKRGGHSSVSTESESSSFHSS
RNA-editing ligase 1, mitochondrial, sequence (P86926 whole entry): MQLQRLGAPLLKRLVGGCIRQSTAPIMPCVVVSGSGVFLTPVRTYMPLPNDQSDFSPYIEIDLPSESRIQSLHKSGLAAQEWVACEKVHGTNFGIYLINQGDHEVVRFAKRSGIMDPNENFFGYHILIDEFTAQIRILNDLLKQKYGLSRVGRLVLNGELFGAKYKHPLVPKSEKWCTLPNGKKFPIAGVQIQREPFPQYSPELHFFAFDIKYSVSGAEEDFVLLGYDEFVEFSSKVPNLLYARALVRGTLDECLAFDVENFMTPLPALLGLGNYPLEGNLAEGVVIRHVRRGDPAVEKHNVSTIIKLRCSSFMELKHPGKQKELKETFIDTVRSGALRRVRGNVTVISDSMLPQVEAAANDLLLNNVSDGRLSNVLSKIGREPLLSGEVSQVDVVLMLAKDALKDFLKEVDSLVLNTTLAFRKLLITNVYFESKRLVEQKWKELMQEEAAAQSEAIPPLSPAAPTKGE
Potassium channel subfamily K member 9, sequence (Q9NPC2 whole entry): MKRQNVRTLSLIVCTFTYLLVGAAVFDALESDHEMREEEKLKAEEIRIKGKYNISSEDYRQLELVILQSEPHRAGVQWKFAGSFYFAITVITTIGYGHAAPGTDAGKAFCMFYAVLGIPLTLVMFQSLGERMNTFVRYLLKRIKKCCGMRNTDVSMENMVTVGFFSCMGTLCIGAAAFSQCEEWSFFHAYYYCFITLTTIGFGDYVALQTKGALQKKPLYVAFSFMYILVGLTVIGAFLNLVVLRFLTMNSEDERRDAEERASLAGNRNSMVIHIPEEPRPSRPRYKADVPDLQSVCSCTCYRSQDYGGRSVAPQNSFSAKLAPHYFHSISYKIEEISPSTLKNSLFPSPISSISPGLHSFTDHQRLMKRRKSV
fMet-Leu-Phe receptor, sequence (P21462 whole entry): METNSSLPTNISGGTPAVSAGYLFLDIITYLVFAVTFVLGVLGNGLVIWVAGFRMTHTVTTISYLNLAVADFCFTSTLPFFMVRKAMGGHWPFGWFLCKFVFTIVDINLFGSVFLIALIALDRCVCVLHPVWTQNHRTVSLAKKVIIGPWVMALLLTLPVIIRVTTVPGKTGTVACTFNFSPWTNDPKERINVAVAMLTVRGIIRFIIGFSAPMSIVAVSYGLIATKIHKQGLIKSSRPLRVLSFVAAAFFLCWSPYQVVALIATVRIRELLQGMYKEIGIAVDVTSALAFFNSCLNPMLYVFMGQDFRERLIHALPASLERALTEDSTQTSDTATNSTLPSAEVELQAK
Glutathione-S-transferase, sequence (Q26513 whole entry): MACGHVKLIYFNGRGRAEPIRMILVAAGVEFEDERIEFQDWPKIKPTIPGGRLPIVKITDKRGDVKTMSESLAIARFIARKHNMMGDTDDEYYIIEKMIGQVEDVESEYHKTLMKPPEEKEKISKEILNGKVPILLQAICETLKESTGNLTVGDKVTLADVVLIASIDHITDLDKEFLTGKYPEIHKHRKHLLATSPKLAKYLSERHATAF
C-C chemokine receptor type 6, sequence (P51684 whole entry): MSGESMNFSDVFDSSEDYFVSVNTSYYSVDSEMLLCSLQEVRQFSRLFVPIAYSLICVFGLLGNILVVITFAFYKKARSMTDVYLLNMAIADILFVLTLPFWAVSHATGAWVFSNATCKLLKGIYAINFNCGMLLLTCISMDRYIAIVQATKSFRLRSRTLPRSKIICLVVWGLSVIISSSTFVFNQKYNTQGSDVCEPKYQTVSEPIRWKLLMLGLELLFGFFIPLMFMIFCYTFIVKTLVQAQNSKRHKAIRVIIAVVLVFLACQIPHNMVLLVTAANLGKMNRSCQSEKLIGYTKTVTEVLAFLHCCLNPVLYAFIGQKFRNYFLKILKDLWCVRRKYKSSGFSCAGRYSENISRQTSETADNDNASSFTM
ATP-dependent molecular chaperone HSP82, sequence (C4YTQ8 whole entry): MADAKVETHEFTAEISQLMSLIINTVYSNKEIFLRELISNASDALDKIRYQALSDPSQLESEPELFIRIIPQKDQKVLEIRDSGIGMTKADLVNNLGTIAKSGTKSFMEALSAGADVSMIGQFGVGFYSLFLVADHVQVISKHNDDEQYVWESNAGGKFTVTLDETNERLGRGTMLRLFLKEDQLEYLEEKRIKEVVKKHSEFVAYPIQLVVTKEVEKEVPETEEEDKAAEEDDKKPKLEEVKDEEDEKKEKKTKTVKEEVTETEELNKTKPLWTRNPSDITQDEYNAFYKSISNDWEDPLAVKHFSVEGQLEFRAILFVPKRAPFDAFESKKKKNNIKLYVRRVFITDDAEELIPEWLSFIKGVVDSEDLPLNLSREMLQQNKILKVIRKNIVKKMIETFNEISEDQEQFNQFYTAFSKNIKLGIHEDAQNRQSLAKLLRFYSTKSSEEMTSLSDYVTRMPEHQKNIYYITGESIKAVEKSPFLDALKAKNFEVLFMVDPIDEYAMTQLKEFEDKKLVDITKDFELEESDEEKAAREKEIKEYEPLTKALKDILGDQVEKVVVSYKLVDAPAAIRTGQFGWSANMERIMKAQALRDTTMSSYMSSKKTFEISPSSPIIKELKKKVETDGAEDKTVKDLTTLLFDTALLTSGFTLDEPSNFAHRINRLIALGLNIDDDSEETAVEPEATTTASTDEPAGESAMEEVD
COUP transcription factor 2, sequence (P24468 whole entry): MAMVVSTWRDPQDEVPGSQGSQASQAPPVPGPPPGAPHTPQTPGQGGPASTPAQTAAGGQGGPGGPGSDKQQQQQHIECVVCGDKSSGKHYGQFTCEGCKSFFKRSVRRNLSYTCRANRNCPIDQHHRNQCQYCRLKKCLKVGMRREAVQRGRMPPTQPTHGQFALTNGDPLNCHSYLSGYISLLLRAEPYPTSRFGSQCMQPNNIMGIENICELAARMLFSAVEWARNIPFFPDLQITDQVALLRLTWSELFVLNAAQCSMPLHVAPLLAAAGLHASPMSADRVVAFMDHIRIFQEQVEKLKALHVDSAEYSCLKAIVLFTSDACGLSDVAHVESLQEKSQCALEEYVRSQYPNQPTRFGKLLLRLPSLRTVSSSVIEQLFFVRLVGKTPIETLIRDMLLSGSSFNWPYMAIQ
NAD-dependent protein deacylase sirtuin-5, mitochondrial, sequence (Q9NXA8 whole entry): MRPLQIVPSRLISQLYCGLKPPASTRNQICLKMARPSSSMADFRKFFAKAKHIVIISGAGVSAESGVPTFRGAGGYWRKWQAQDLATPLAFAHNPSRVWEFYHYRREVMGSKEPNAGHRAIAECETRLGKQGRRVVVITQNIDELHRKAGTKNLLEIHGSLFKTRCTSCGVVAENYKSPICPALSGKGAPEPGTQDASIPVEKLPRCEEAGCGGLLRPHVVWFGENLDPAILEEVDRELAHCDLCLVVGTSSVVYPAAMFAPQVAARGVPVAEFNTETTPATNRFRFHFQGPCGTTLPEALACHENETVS
Potassium channel subfamily K member 3, sequence (O14649 whole entry): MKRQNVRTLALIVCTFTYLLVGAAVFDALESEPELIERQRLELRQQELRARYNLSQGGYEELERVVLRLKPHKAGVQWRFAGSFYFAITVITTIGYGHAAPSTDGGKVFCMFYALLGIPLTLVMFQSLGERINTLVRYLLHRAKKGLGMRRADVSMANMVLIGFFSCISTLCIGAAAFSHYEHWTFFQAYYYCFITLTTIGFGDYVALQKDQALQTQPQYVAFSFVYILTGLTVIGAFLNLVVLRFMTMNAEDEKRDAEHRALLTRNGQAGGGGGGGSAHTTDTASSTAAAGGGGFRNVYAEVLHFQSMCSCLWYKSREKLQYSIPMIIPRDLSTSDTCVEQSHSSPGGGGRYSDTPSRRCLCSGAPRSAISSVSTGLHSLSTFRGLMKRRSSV
Galanin receptor type 3, sequence (O60755 whole entry): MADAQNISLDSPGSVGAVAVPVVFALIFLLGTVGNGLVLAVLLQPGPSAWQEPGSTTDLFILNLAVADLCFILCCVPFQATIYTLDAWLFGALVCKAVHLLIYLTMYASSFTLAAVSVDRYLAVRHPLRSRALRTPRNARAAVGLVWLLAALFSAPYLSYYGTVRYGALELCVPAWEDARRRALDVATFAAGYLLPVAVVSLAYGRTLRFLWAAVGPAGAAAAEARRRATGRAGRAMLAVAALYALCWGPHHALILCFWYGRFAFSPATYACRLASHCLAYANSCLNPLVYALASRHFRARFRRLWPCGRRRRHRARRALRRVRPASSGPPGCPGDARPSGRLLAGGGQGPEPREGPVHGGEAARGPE

Regarding `CC(Nc1ncnc2ccccc12)c1ccccc1` (stereo not drawn), the EC50 in test [1] is > 160 µM (inactive); in test [3], > 180 µM (inactive); in test [4] it was 0.404 µM (active); in the test “cells [5]”, > 29.9 µM (inactive); in test [7] it was > 160 µM (inactive). Besides, the AC50 in the test on INS1 was 1.98 µM (active); in test [2], 1.14 µM (active); in test [8] it was 1.21 µM (active); in test [10] it was 0.355 µM (active). Moreover, the IC50 in test [6] is > 80 µM (inactive); in test [9], 2.41 µM (active); on Galanin receptor type 3 it was 0.128 µM (active).

In the case of `O=C(c1ccccc1F)N1CC(=O)N2[C@H](C1)[C@H](c1ccc(-c3cccnc3)cc1)[C@@H]2CO`, the AC50 in [11] is 19.4 µM (active).

For `CC1(C)CC(N2CCN(C(c3ccccc3)c3ccccc3)CC2)=CC(=[N+]2CCCCC2)C1`, the EC50 with BJ [12] was 3.77 µM (active); in the test with BJ [13], 3.51 µM (inconclusive); in the test with BJ [14] it was 2.36 µM (active); in [16], 3.82 µM (active). The IC50 in [6] was > 80 µM (inactive); in test [15], > 96.6 µM (inactive).

As for `CC(=O)OC[C@@H]1CN(Cc2ccccc2)C[C@H](n2cnc3c(N(C)C(C)C)ncnc32)O1`, the concentration at half-maximal activity (AC50) in the test “cells [17]” is 28.8 µM (active).

Regarding `Cc1noc(C)c1NC(=O)Nc1ccc2c(c1)C(=O)N([C@H](C)CO)C[C@H](C)[C@@H](CN(C)Cc1ccc(C(F)(F)F)cc1)OCCCC[C@@H](C)O2`, the AC50 in test [18] is > 30 µM (inactive).

For the compound `O=C(COC(=O)c1ccccc1OC(F)F)Nc1ccc2[nH]c(O)nc2c1`, the IC50 in [19] is > 100 µM (active). The CC50 in [20] is > 40 µM (active).

As for `COc1ccc(F)cc1C(=O)Nc1cccc(NC(=O)c2cccc(C)c2)c1`, the 50% inhibitory concentration (IC50) is 0.225 µM (active) in test [21] and 0.87 µM (active) in test [22].

With `CSc1ccccc1NS(=O)(=O)c1ccccc1`, the Ki at fMet-Leu-Phe receptor is > 66.7 µM (inactive).

As to `O=C(OCCO)c1ccccc1O`, the IC50 in test [23], in [24], in [25], in test [26], in test [27] and in [28] was > 20 µM (inactive) throughout. Moreover, the IC50 in test [29] and in test [30] was > 20 µM (inactive) each time.

With `[N-]=[N+]=NCCOCCNC(=O)CCCOc1ccc(C[S+]([O-])c2nnc(-c3ccc(Cl)cc3)o2)nc1` (stereo not drawn), the concentration for an effect of 90% (IC90) in [31] and in test [32] was 8 µM (active) throughout.

On to `Cc1c(C(=O)NCc2cccc(C(F)(F)F)c2)sc(=O)n1Cc1ccc(C(=O)N(C)C)cc1`, for which the AC50 (in “cells [33]”; in test [34]) was > 52 µM (inactive) each time.

In the case of `COc1cc(C(=O)NC2CC3CCCC(C2)N3CC(=O)Nc2ccccc2Cl)cc(OC)c1OC` (stereo not drawn), the IC50 in test [35] is > 79 µM (inactive); in [36] it was > 79 µM (inactive) and 60.1 µM (inactive).

On to `COc1cc(C(=O)NCCC(=O)NC2CCCc3ccccc32)cc(OC)c1OC` (stereo not drawn), for which the AC50 in [37] was 21.7 µM (active); in test [38] it was 26.7 µM (active).

For `O=C(O)CSc1cc(NS(=O)(=O)c2cccc3cccnc23)c2ccccc2c1O`, the cytotoxic concentration (CC50) in test [39] is 6.1 µM (active).
